Test results published in US11198869B2, “Angelman syndrome antisense treatment” (The Texas A&M University System, priority 2017, dated 2021).

System: UBE3A
Assay: UBE3A steady state RNA (qRT-PCR) in GABAergic iPSC-derived neurons
Type: cell-based, human
Details: for Difference, UBE3A RNA level: ASOs 10 μM; for increase of UBE3A RNA levels: 10 μM; for effect on UBE3A RNA levels (in words): treated 29 DIV, RNA 35 DIV, 10-point dose curve
Description: Human-specific ASOs were then designed to target this region, which included four ASOs targeting non-polymorphic regions in human and regions conserved (100%) with macaque (Rhesus and Cynomolgus) (Table 7 and FIG. 3A). Human induced pluripotent stem cell (iPSC) neural precursor cells were differentiated into GABAergic neurons for 14 DIV and then treated with a control ASO [ASO-C (10 μM, n=3)], Topotecan [Topo (1 μM, n=2)], and six ASOs targeting UBE3A-AS [ASO-1, ASO-2, ASO-3, ASO-4, ASO-5, and ASO-6 (10 μM, n=3)]. Additionally, an ASO targeting an intronic region downstream of SNORD109B was included (ASO-7). Six days post-treatment (20 DIV), RNA was isolated from the neurons and the steady state RNA levels of UBE3A-AS and UBE3A were estimated relative to the control treatment (FIG. 3B).
The effects of ASO-4 and Topotecan were then examined on the SNORD116, IPW, SNORD115, and SNORD109A RNAs, which are located upstream of the ASO-4 target region (see FIG. 1A).
The potency of ASO-4 was further examined in iPSC-derived neurons at a later time point in differentiation. GABAergic iPSC-derived neurons were treated at 59 DIV with a control ASO [ASO-C, 10 μM (n=3)] and ASO-4 [1 uM, 5 μM, and 10 μM (n=3)], and the steady state RNA levels of UBE3A-AS and UBE3A were measured as described above (FIG. 4G). Unlike neurons treated with ASO-4 at an earlier time point, the RNA levels of UBE3A and UBE3A-AS were highly inversely correlated (FIGS. 4H and 4I). For example, the effect of ASO-4 (10 μM) on UBE3A-AS RNA levels was similar between neurons treated at 14 and 59 DIV [20 DIV: UBE3A-AS: ↓87% (95% confidence intervals (CI): 80 to 95%); 65 DIV: ↓81% (95% CI: 74 to 88%)], whereas the effect of ASO-4 on UBE3A RNA levels was substantially larger in neurons treated at 59 DIV [20 DIV: ↑30% (95% CI: 16 to 44%); 65 DIV: ↑86% (95% CI: 59% to 113%)].
The potency of ASO-4 and ASO-6.1 was further examined in iPSC-derived neurons at a later time point in differentiation. GABAergic iPSC-derived neurons were treated at 29 DIV with a 10-point ½ log dose response curve of ASO-4 and ASO-6.1 [1 nM, 3 nM, 10 nM, 30 nM, 100 nM, 300 nM, 1 μM, 3 μM, 10 μM, and 30 μM (n=3)]. At 35 DIV, the IC50 and Emax of each ASO was estimated as described above (FIG. 5C-D and Table 14). The dose response curves of ASO-4 and ASO-6.1 were not similar (Parallelism test: F(3,172)=22.7, p<0.0001).
GABAergic and glutamatergic induced pluripotent stem cell (iPSC) derived neural precursor cells (NRC-100-010-001 and GNC-301-030-001, Cellular Dynamics International, Madison Wis.) were differentiated into neurons according to the manufactures protocol. Briefly, neural precursor cells were thawed and resuspended in chemically defined medium and added to sterile-culture plates coated with poly-D-lysine and laminin. The medium was replaced 24 hr after plating and then one-half of the medium was replaced every 3-5 days afterwards.
For cultured iPSC-derived neurons, RNA isolation and cDNA synthesis were performed using the Cell-to-CT kit (Thermo Fisher Scientific) in a lysate volume of 55 μl.
The steady state RNA levels of target transcripts were measured using TaqMan quantitative reverse-transcription PCR (qRT-PCR) assays. Total reaction volume was 10 uL, including 2 μl of cDNA, 1× Gene Expression Master mix (4369016, Thermo Fisher Scientific, Waltham, Mass.), and 1× TaqMan primer assay (Thermo Fisher Scientific). Cycling conditions were 2 minutes at 50° C., 10 minutes at 95° C., and 40 cycles of 15 seconds at 95° C. and 1 minute at 60° C., with readings taken at the 60° C. step of every cycle. Reactions were run on a BIO-RAD T1000 CFX96 thermocycler (Bio-Rad Laboratories, Hercules Calif.), with internal control (PPIA, Hs99999904_m1, Thermo Fisher Scientific) and target [UBE3A-AS, Hs01372957_m1; SNORD116-11, Hs04275268_gH; SNORD115, Hs04275288_gH; IPW, Hs03455409_s1; SNORD109A/B, AP47WVR (Thermo Fisher Scientific); UBE3A: forward […] (SEQ ID NO:500); reverse: […]

[1] = Topo 1 μM, 14 DIV to 20 DIV, labelled treatment minus ASO-3
[2] = Topo 1 μM, 14 DIV to 20 DIV, labelled treatment minus ASO-5
[3] = Topo 1 μM, 14 DIV to 20 DIV, labelled treatment minus ASO-6
[4] = Topo 1 μM, 14 DIV to 20 DIV, labelled treatment minus ASO-R
[5] = Topo 1 μM, treated 14 DIV, RNA 20 DIV, normalized to ASO-C, labelled treatment minus ASO-C
[6] = 14 DIV to 20 DIV, labelled treatment minus ASO-1
[7] = 14 DIV to 20 DIV, labelled treatment minus Topo (1 μM)

Compound | Difference, UBE3A RNA level [1] | Difference, UBE3A RNA level [2] | Difference, UBE3A RNA level [3] | Difference, UBE3A RNA level [4] | Difference, UBE3A RNA level [5] | Difference, UBE3A RNA level [6] | Difference, UBE3A RNA level [7] | increase of UBE3A RNA levels (treated 14 DIV, RNA 20 DIV) [%] | increase of UBE3A RNA levels (treated 59 DIV, RNA 65 DIV) [%] | Difference, UBE3A RNA level (14 DIV to 20 DIV, labelled treatment minus ASO-2) | effect on UBE3A RNA levels (in words)
G^O*U^O*A^O*C^O*U^O*c*t*t*c*c*t*c*a*g*t*C^O*A^O*U^O*C^O*C^O [ASO-2] | 0.08 | 0.05 | 0.05 | 0.21 | 0.21 | 0.03 | 0.03 | – | – | – | –
U^O*A^O*G^O*A^O*A^O*t*g*g*c*a*c*a*t*c*t*C^O*U^O*U^O*G^O*G^O [ASO-4] | 0.17 | 0.13 | 0.13 | 0.29 | 0.30 | 0.11 | 0.11 | 30 | 86 | 0.08 | increasing RNA levels in dose dependent manner
CC[C@@]1(O)C(=O)OCc2c1cc1n(c2=O)Cc2cc3c(CN(C)C)c(O)ccc3nc2-1 [Topotecan, reference compound] | 0.05 | 0.02 | 0.02 | 0.18 | 0.18 | – | – | – | – | – | –
C^O*U^O*G^O*G^O*t*g*t*c*a*a*c*a*a*g*C^O*C^O*A^O*A^O [ASO-6.1] | – | – | – | – | – | – | – | – | – | – | increasing RNA levels in dose dependent manner
